The values below come from patent US8470828B2, “Anellated pyridine compounds” (Hoffmann-La Roche Inc., priority 2010, dated 2013).

In one data set the target is human D3 receptor (Homo sapiens, UniProt P35462). As to the kind of experiment: Radioligand binding to cloned human D3 receptor expressed in HEK-293 EBNA cells ([3H]-spiperone).
Another data set has as its target T1, human D2 receptor (Homo sapiens, UniProt P14416).
T1 construct: expressed in transfected cells; host or cells: HEK293 EBNA cells, transient transfection; membrane preparation
As to the kind of experiment: Radioligand binding to cloned human D2 receptor expressed in HEK-293 EBNA cells ([3H]-spiperone). Particulars: HEK293 EBNA cell membranes, approximately 0.7 nM [3H]-spiperone, 1 h at RT.

A further data set addresses human 5-HT2A receptor (Homo sapiens, UniProt P28223). As to the kind of experiment: Radioligand binding to cloned human 5-HT2A receptor expressed in HEK-293 EBNA cells ([3H]-ketanserin).

Sequence of human 5-HT2A receptor (P28223 whole entry): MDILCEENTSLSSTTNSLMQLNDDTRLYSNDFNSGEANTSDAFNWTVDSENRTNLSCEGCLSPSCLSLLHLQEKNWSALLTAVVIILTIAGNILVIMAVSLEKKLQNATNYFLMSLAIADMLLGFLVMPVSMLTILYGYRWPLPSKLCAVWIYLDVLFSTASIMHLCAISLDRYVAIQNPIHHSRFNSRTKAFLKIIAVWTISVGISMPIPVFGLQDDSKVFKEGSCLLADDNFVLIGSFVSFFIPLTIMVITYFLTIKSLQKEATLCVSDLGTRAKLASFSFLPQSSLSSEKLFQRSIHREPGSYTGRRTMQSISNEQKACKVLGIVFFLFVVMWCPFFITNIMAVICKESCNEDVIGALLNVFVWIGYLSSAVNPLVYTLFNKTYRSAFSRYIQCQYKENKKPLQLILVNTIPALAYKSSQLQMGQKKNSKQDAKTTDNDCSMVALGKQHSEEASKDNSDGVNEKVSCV
Sequence of human D3 receptor (P35462 whole entry): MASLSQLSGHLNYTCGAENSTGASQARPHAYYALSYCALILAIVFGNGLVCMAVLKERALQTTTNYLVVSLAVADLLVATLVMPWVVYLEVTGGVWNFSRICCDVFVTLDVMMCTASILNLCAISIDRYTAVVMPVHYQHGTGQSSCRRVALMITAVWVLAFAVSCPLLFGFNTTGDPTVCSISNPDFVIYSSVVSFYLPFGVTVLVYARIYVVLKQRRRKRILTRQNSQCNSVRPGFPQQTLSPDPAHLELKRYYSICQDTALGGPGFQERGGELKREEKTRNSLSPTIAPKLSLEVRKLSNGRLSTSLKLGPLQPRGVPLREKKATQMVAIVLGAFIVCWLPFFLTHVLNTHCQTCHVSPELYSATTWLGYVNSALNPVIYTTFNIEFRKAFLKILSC
T1 sequence (P14416 whole entry): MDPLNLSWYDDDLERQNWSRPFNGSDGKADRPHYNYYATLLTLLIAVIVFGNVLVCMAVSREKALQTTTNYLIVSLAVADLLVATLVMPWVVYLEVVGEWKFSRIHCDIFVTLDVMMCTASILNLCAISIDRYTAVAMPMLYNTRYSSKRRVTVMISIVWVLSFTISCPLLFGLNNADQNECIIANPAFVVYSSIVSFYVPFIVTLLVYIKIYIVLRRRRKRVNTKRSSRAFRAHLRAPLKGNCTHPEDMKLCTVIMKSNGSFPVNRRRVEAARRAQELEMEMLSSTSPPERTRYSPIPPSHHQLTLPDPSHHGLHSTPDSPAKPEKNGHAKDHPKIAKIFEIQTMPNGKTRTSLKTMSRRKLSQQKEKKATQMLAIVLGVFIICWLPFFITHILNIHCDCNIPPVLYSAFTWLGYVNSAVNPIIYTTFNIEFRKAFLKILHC
Procedure for human D2 receptor: HEK293 EBNA cells were transiently transfected with expression plasmids encoding for the human D2 or D3 or for the human 5-HT2A receptor, respectively. The cells were harvested 48 h post-transfection, washed three times with cold PBS and stored at −80° C. prior to use. The pellet was suspended in cold 50 mM Tris-HCl buffer comprising 10 mM EDTA (pH 7.4) and was homogenized with a Polytron (Kinematica A G, Basel, Switzerland) for 20-30 sec at 12.000 rpm. After centrifugation at 48.000×g for 30 min at 4° C., the pellet was resuspended in cold 10 mM Tris-HCl buffer comprising 0.1 mM EDTA (pH 7.4), homogenized, and centrifuged as above. This pellet was further resuspended in a smaller volume of ice cold 10 mM Tris-HCl buffer comprising 0.1 mM EDTA (pH 7.4) and homogenized with a Polytron for 20-30 sec at 12.000 rpm. The protein content of this homogenate was determined with the Bio-Rad (Bradford) Protein Assay (Biorad Laboratories GmbH, München, Germany) according to the instructions of the manufacturer using gamma globulin as the standard. This homogenate was stored at −80° C. in aliquots and thawed immediately prior to use.
Aliquots of membrane preparations were thawed at RT, resupended in assay buffer (D2, D3: 50 mM Tris-HCl, 120 mM NaCl, 5 mM MgCl2, 1 mM EDTA, 5 mM KCl, 1.5 mM CaCl2, pH=7.4; 5-HT2A: 50 mM Tris-HCl, 10 mM MgCl2, 1 mM EGTA, pH=7.4), homogenized with a Polytron for 20-30 sec at 12.000 rpm and adjusted to a final concentration of approximately 7.5 μg protein/well (D2, D3) and 15 μg protein/well (5-HT2A), respectively.
The binding affinity (Ki) of the compounds was determined using radioligand binding. Membranes were incubated in a total volume of 200 μl with a fixed concentration of radioligand (final concentration approximately 0.7 nM [^3H]-spiperone for D2, 0.5 nM [^3H]-spiperone for D3, and 1.1 nM [^3H]-ketanserin for 5-HT2A) and ten concentrations of test compound in ranging between 10 μM-0.1 nM for 1 h at RT. At the end of the incubation, the reaction mixtures were filtered on to unifilter 96-well white microplates with bonded GF/C filters (Packard BioScience, Zürich, Switzerland; preincubated for 1 h in 0.1% polyethylenimine (PEI) in assay buffer) with a Filtermate 196 harvester (Packard BioScience) and washed 3 times with cold assay buffer. The nonspecific binding was determined with equally composed reaction mixtures in the presence of 10 μM unlabelled spiperone. Per well 45 μl of Microscint 40 (Perkin Elmer, Schwerzenbach, Switzerland) was added, plates for sealed, shaken for 20 min and counted for 3 min on a Topcount Microplate Scintillation Counter (Can berra Packard S A, Zürich, Switzerland) with quenching correction.
The CPM value for each duplicate of a concentration of competing compound was averaged (y1), then the % specific binding was calculated according to the equation (((y1−non-specific)/(total binding−non-specific))×100). Graphs were plotted with the % specific binding using XLfit, a curve fitting program that iteratively plots the data using Levenberg-Marquardt algorithm. The single site competition analysis equation used was y=A+((B−A)/(1+((x/C)D))), where y is the % specific binding, A is the minimum y, B is the maximum y, C is the IC50, x is the log 10 of the concentration of the competing compound and D is the slope of the curve (the Hill Coefficient). […] The affinity constant (Ki) was calculated using the Cheng-Prusoff equation Ki=(IC50/1+([L]/Kd), where [L] is the concentration of radioligand and Kd is the dissociation constant of the radioligand at the receptor as determined by the saturation isotherm.

By Ki is commonly meant a dissociation constant, usually derived from enzyme kinetics or from competition with a known ligand. Lower therefore signals higher affinity. One may read the melting point as the temperature, or range, at which the solid turns liquid. `CN(C)S(=O)(=O)N[C@H]1CC[C@H](CCN2CCN(c3nccc4c3OCC4)CC2)CC1` [Example 95, N′-(trans-4-{2-[4-(2,3-Dihydro-furo[2,3-c]pyridin-7-yl)-piperazin-1-yl]-ethyl}cyclohexyl)-N,N-dimethylsulfamide] gave a melting point of 128 °C. The same compound yielded a Ki at human D3 receptor of 0.0108 µM. For the same compound, affinity on human D2 receptor was put at a Ki of 0.641 µM. The compound further came in with an inhibition constant (Ki) on human 5-HT2A receptor of 0.0311 µM.
`O=S(=O)(N[C@H]1CC[C@H](CCN2CCN(c3nccc4c3OCC4)CC2)CC1)c1ccc(F)cc1` [Example 96, trans-N-(4-{2-[4-(2,3-Dihydro-furo[2,3-c]pyridin-7-yl)-piperazin-1-yl]-ethyl}-cyclohexyl)-4-fluoro-benzenesulfonamide] registered a melting point of 148 °C. Further, the affinity at human D3 receptor, expressed as Ki, was 0.00527 µM. In addition, on human D2 receptor, the Ki turned out to be 0.2 µM. Also, the Ki at human 5-HT2A receptor is 0.204 µM.
In the same order, the values of `O=C(CC1COC1)N[C@H]1CC[C@H](CCN2CCN(c3nccc4c3OCC4)CC2)CC1` [Example 98, trans-N-(4-{2-[4-(2,3-Dihydro-furo[2,3-c]pyridin-7-yl)-piperazin-1-yl]-ethyl}-cyclohexyl)-2-oxetan-3-yl-acetamide] are 175 °C, 0.00488 µM, 0.42 µM and 0.0316 µM.
The matching figures for `O=S(=O)(N[C@H]1CC[C@H](CCN2CCN(c3nccc4c3OCC4)CC2)CC1)c1ccccc1` [Example 99, trans-N-(4-{2-[4-(2,3-Dihydro-furo[2,3-c]pyridin-7-yl)-piperazin-1-yl]-ethyl}-cyclohexyl)-benzenesulfonamide]: 122.5 °C, 0.006 µM, 0.233 µM and 0.151 µM.
The compound `CO[C@H](C)C(=O)N[C@H]1CC[C@H](CCN2CCN(c3nccc4c3OCC4)CC2)CC1` [Example 100, trans-(R)—N-(4-{2-[4-(2,3-Dihydro-furo[2,3-c]pyridin-7-yl)-piperazin-1-yl]-ethyl}-cyclohexyl)-2-methoxy-propionamide] showed a melting point of 170.5 °C. On human D3 receptor, this compound returned a Ki of 0.0309 µM. At human D2 receptor, this compound came in with a Ki of 0.714 µM. For the same compound, at human 5-HT2A receptor, the Ki was found to be 0.0229 µM.
Turning to `O=C(CC1(O)CCC1)N[C@H]1CC[C@H](CCN2CCN(c3nccc4c3OCC4)CC2)CC1` [Example 102, trans-N-(4-{2-[4-(2,3-Dihydro-furo[2,3-c]pyridin-7-yl)-piperazin-1-yl]-ethyl}-cyclohexyl)-2-(1-hydroxy-cyclobutyl)-acetamide], the melting point stood at 155 °C. Moreover, affinity on human D3 receptor was put at a Ki of 0.0118 µM. The same compound had a Ki at human D2 receptor of 0.478 µM. This compound showed a Ki at human 5-HT2A receptor of 0.0506 µM.
The matching figures for `CC[C@@H](O)CC(=O)N[C@H]1CC[C@H](CCN2CCN(c3nccc4c3OCC4)CC2)CC1` [Example 103, (R)-3-Hydroxy-pentanoic acid trans-(4-{2-[4-(2,3-dihydro-furo[2,3-c]pyridin-7-yl)-piperazin-1-yl]-ethyl}-cyclohexyl)-amide]: 146 °C, 0.0201 µM, 0.874 µM and 0.113 µM.
